Legend:
[1] = molecular target: T1, cytosolic phospholipase A2 (Homo sapiens, UniProt P47712); test: Inhibition of cytosolic phospholipase A2 in intact human platelets stimulated with calcium ionophor A23187 (arachidonic acid release, HPLC); assay type: cell-based; conditions: concentration of 10 μM, calcium ionophor A23187 stimulation, one collective range for the six compounds, read-out: inhibited the activity of cytosolic phospholipase A2
T1 construct: endogenous in cells; host or cells: intact human platelets (thrombocytes)
T1 sequence (P47712 1-749): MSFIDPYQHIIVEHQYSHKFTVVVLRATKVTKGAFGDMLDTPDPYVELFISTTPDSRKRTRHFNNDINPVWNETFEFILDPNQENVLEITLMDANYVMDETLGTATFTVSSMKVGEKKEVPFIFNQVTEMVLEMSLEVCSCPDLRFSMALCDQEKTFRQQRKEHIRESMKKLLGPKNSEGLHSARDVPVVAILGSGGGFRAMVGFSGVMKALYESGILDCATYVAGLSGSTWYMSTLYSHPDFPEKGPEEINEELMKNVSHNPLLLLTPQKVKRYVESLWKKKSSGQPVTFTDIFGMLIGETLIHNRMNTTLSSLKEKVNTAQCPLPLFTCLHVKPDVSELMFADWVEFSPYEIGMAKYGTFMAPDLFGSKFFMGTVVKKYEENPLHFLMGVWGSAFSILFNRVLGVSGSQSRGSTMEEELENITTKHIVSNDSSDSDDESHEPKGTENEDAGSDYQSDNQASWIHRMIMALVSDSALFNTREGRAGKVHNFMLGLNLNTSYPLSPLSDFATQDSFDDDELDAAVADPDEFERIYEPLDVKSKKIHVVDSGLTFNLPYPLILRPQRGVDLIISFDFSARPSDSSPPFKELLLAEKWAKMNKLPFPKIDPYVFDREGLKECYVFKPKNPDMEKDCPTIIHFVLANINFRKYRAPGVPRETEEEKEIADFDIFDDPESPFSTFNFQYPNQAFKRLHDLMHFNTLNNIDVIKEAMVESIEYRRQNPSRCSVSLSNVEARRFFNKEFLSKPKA
Text: The effectiveness of the compounds according to the invention can be determined by the inhibition of cytosolic phospholipase A2. To this end, cytosolic phospholipase A2 is stimulated in intact human thrombocytes with calcium ionophor A23187 so as to trigger the release of arachidonic acid from the membrane phospholipids. In order to prevent the metabolization of the enzyme product arachidonic acid via the cyclooxygenase route and the 12-lipoxygenase route, the dual cyclooxygenase/12-lipoxygenase-inhibitor 5,8,11,14-eicosatetraynoic acid is added. Following purification by means of solid phase extraction, the released arachidonic acid is determined by reversed phase-HPLC using U.V. detection. The inhibition of the enzyme by a test substance follows from the ratio of the arachidonic acid amounts formed in the presence or absence of the test substance. More detailed information on the test system is made in Example 10.
The effectiveness of the compounds according to the invention can be determined by the inhibition of cytosolic phospholipase A2. The test method used was described earlier (Lehr M. et al., Arch. Pharm. Pharm. Med. Chem. 2000, 333, 312-314). Here, the arachidonic acid formed by cytosolic phospholipase A2 in intact human platelets following stimulation using calcium ionophor A23187 is detected in the presence and absence of test substances.

melting point	inhibition at 10 µM [1] [%]	Compound
193 °C		CCCCCCCCc1ccc(OCC(=O)Cn2cc(C=O)c3cc(C(=O)O)ccc32)cc1
197 °C		CCCCCCCCc1ccc(OCC(=O)Cn2cc(C(C)=O)c3cc(C(=O)O)ccc32)cc1
208 °C		CCCCCCCCc1ccc(OCC(=O)Cn2cc(C(=O)OC)c3cc(C(=O)O)ccc32)cc1
	40 to 95	CCCCCCCCc1ccc(OCC(=O)Cn2ccc(C(=O)O)c2)cc1 [Example 6, 1-[3-(4-Octylphenoxy)-2-oxopropyl]pyrrole-3-carboxylic acid]
	40 to 95	CCCCCCCCc1ccc(OCC(=O)Cn2ccc3cc(C(=O)O)ccc32)cc1 [Example 9, 1-[3-(4-Octylphenoxy)-2-oxopropyl]indole-5-carboxylic acid]
146 to 147 °C		CCCCCCCCc1ccc(OCC(=O)Cn2cc(C(C)(C)C)c3cc(C(=O)O)ccc32)cc1 [Example 18, 3-tert-Butyl-1-[3-(4-octylphenoxy)-2-oxopropyl]indole-5-carboxylic acid]
157 °C		CCCCCCCCc1ccc(OCC(=O)Cn2cc(Cl)c3cc(C(=O)O)ccc32)cc1 [Example 19, 3-Chloro-1-[3-(4-octylphenoxy)-2-oxopropyl]indole-5-carboxylic acid]
145 to 146 °C		CCCCCCCCc1ccc(OCC(=O)Cn2cc(C(C)(C)C)c3ccc(C(=O)O)cc32)cc1 [Example 23, 3-tert-Butyl-1-[3-(4-octylphenoxy)-2-oxopropyl]indole-6-carboxylic acid]

The remaining lines, values behind:

Compound	melting point	inhibition at 10 µM [1] [%]
CCCCCCCCc1ccc(OCC(=O)Cn2cccc2)cc1	58 to 59 °C	
CCCCCCCCc1ccc(OCC(=O)Cn2ccc3ccccc32)cc1	65 °C	
CCCCCCCCc1ccc(OCC(=O)Cn2ncc3ccccc32)cc1	66 to 67 °C	
CCCCCCCCc1ccc(OCC(=O)Cn2cccn2)cc1 [Example 2, 1-(4-Octylphenoxy)-3-(pyrazol-1-yl)propan-2-one]		40 to 95
CCCCCCCCc1ccc(OCC(=O)Cn2cccc2C(=O)O)cc1 [Example 5, 1-[3-(4-Octylphenoxy)-2-oxopropyl]pyrrol-2-carboxylic acid]	157 °C (dec.)	40 to 95
CCCCCCCCc1ccc(OCC(=O)Cn2c(C(=O)O)cc3ccccc32)cc1 [Example 7, 1-[3-(4-Octylphenoxy)-2-oxopropyl]indole-2-carboxylic acid]	173 °C	40 to 95
CCCCCCCCc1ccc(OCC(=O)Cn2cc(C(=O)O)c3ccccc32)cc1 [Example 8, 1-[3-(4-Octylphenoxy)-2-oxopropyl]indole-3-carboxylic acid]	182 to 183 °C	40 to 95
CCCCCCCCc1ccc(OCC(=O)Cn2ccc3cc(Cl)ccc32)cc1 [Example 13, 1-(5-Chloroindol-1-yl)-3-(4-octylphenoxy)propan-2-one]	77 °C	
CCCCCCCCc1ccc(OCC(=O)Cn2ccc3cc(OC)ccc32)cc1 [Example 14, 1-(5-Methoxyindol-1-yl)-3-(4-octylphenoxy)propan-2-one]	85 °C	
CCCCCCCCc1ccc(OCC(=O)Cn2ccc3cc(C#N)ccc32)cc1 [Example 15, 1-(3-(4-Octylphenoxy)-2-oxopropyl]indole-5-carbonitrile]	96 °C	
CCCCCCCCc1ccc(OCC(=O)Cn2ccc3cc(C=O)ccc32)cc1 [Example 16, 1-[3-(4-Octylphenoxy)-2-oxopropyl]indole-5-carbaldehyde]	96 °C	
CCCCCCCCc1ccc(OCC(=O)Cn2ccc3cc(C(=O)OC)ccc32)cc1 [Example 17, Methyl-1-(3-(4-octylphenoxy)-2-oxopropyl]indole-5-carboxylate]	118 °C	
CCCCCCCOc1ccc(OCC(=O)Cn2ccc3cc(C(N)=O)ccc32)cc1 [Example 26, 1-[3-(4-Heptyloxyphenoxy)-2-oxopropyl]indole-5-carbamide]	114 °C	
CCCCCCCn1ccc2cc(OCC(=O)Cn3ccc4cc(C(N)=O)ccc43)ccc21 [Example 30, 1-[3-(1-Heptylindol-5-yloxy)-2-oxopropyl]indole-5-carbamide]	171 °C	

— US7608633B2, “Heteroaryl-substituted acetone derivatives as inhibitors of phospholipase A2” (Merckle GmbH, priority 2003, dated 2009)
